From patent US11013702B2, “Midodrine hydrochloride oral solution and uses thereof” (Vertice Pharma, LLC, priority 2017, dated 2021)

Experiment: Solubility of midodrine hydrochloride in various solvents and pH values
Format: physicochemical

solubility (0.01N hydrochloric acid, simulated gastric fluid): > 10000 µg/mL | solubility (0.1N hydrochloric acid, simulated gastric fluid): > 10000 µg/mL | solubility (Simulated Gastric Fluid (SGF) pH 1.25): > 10000 µg/mL | solubility (aqueous buffer, Potassium Phosphate Buffer, pH 6.0): > 10000 µg/mL | solubility (potassium phosphate buffer, pH 2.5, aqueous buffer): > 10000 µg/mL | solubility (potassium phosphate buffer, pH 3.5, aqueous buffer): > 10000 µg/mL | solubility (potassium phosphate buffer, pH 4.5, aqueous buffer): > 10000 µg/mL | solubility (potassium phosphate buffer, pH 5.5, aqueous buffer): > 10000 µg/mL | solubility (potassium phosphate buffer, pH 6.8, aqueous buffer): > 10000 µg/mL | solubility (potassium phosphate buffer, pH 7.2, aqueous buffer): > 10000 µg/mL | solubility (potassium phosphate buffer, pH 7.5, aqueous buffer): > 10000 µg/mL | solubility (water): > 10000 µg/mL
Structure (SMILES): COc1ccc(OC)c(C(O)CNC(=O)CN)c1.Cl (stereo not drawn) [Midodrine Hydrochloride, 2-amino-N-[2-(2,5-dimethoxyphenyl) -2-hydroxyethyl]acetamide hydrochloride]
